Laboratory results from article PMC12081876, “Identification of PTGR2 inhibitors as a new therapeutic strategy for diabetes and obesity” (EMBO Molecular Medicine, 2025).
Several values for one entry are separate records, joined by “and”; a condition that tells them apart may be missing. Equal entries are not always repeated.

Legend:
[1] = tested on: HFHSD-fed obese C57BL6/J mice; assay: Intraperitoneal glucose tolerance test (ipGTT); format: in vivo, mouse; parameters: Figure 2H Average (glucose, ipGTT) / ipGTT / ipGTT glucose, Average / Blood glucose during glucose tolerance test (Figure 5L), Average: unit not given here; details: for ipGTT glucose, Average: BPRPT0245 100 mg/kg/day, group average (Figure 5L); for ipGTT glucose, individual mice: individual mouse values (Figure 5L, sheet BPRPT0245), in mg/dL (unit assumed)
Protocol: (§1) Glucose tolerance was evaluated by the oral (OGTT) and intraperitoneal glucose tolerance test (ipGTT) after a 6-h fast. For the OGTT, glucose water (1 mg/g) was given by oral gavage, and tail blood glucose was measured with a glucometer (ACCU-CHEK Performa, Roche) at 0, 15, 30, 45, 60, 90, and 120 min. For the ipGTT, tail blood glucose was measured at 0, 15, 30, 45, 60, 90, and 120 min after intraperitoneal injection of glucose water (1 mg/g). For the insulin tolerance test (ITT), mice were fasted for 4 h and then injected intraperitoneally with 1 U/kg of insulin (Humulin R, Eli Lilly). Tail blood glucose was measured at 0, 15, 30, 45, 60, 90, 120, and 180 min.

[2] = tested on: differentiated 3T3-L1 adipocytes; assay: Insulin-stimulated glucose uptake assay by (3H)2-deoxyglucose; format: cell-based, mouse; details: differentiated 3T3-L1 adipocytes
[3] = tested on: HFHSD-fed obese C57BL6/J mice; assay: Insulin tolerance test (ITT); format: in vivo, mouse; parameters: Figure 2I Average (glucose, ITT) / ITT / ITT glucose, Average / Blood glucose during insulin tolerance test (Figure 5M), Average: unit not given here; details: for ITT glucose, Average: BPRPT0245 100 mg/kg/day, group average (Figure 5M); for ITT glucose, individual mice: individual mouse values (Figure 5M, sheet BPRPT0245), in mg/dL (unit assumed)
Protocol: as §1

[4] = tested on: HFHSD-fed obese C57BL6/J mice; assay: Body weight / diet-induced obesity in HFHSD-fed mice; format: in vivo, mouse; details: for Body weight, Avg: BPRPT0245 100 mg/kg/day (Figure 5J); for Body weight, Avg / Body weight, Average / Body weight (individual mouse): in g (unit assumed); for Body weight, Average / Body weight (individual mouse): Figure 5J; for Body weight, Average: 100 mg/kg/day; for Body weight (individual mouse): BPRPT0245 group
[5] = 100 mg/kg/day oral, HFHSD-fed mice, vs vehicle

Cc1[nH]c2nc(C(C)N3CCN(c4ccccc4)CC3)nn2c(=O)c1Cc1ccc(F)cc1 (stereo not shown) [BPRPT0245]
ipGTT glucose, Average ([1]; 0 minute): 153.667 | ipGTT glucose, individual mice ([1]; 0 minute): 129 and 127 and 202 and 168 and 162 and 152 and 179 and 142 and 147 and 175 and 150 and 108 and 169 | glucose tolerance (ipGTT) [1, 5]: improved glucose tolerance | ipGTT glucose, Average ([1]; 15 minute): 305 | ipGTT glucose, individual mice ([1]; 15 minute): 325 and 328 and 302 and 300 and 251 and 345 and 316 and 291 and 297 and 290 and 312 and 319 and 271 and 303 | ipGTT glucose, Average ([1]; 30 minute): 285.933 | ipGTT glucose, individual mice ([1]; 30 minute): 318 and 250 and 316 and 269 and 323 and 308 and 260 and 273 and 295 and 280 and 325 and 283 and 289 and 215 and 285 | ipGTT glucose, Average ([1]; 45 minute): 242.333 | ipGTT glucose, individual mice ([1]; 45 minute): 261 and 181 and 275 and 209 and 208 and 318 and 231 and 278 and 227 and 225 and 336 and 288 and 173 and 200 | ipGTT glucose, Average ([1]; 60 minute): 219.733 | ipGTT glucose, individual mice ([1]; 60 minute): 262 and 155 and 167 and 252 and 207 and 264 and 223 and 275 and 201 and 277 and 228 and 194 and 179 and 205 | ipGTT glucose, Average ([1]; 90 minute): 192.133 | ipGTT glucose, individual mice ([1]; 90 minute): 204 and 144 and 134 and 174 and 173 and 260 and 232 and 213 and 160 and 193 and 231 and 169 and 117 and 218 | ipGTT glucose, Average ([1]; 120 minute): 185.4 | ipGTT glucose, individual mice ([1]; 120 minute): 218 and 166 and 140 and 179 and 201 and 221 and 215 and 198 and 168 and 199 and 217 and 208 and 174 and 111 | insulin-stimulated glucose uptake [2]: augmented insulin-stimulated glucose uptake of differentiated 3T3-L1 adipocytes | ITT glucose, Average ([3]; 0 minutes): 210.867 | ITT glucose, individual mice ([3]; 0 minutes): 210 and 207 and 221 and 237 and 223 and 175 and 211 and 215 and 171 and 203 and 242 and 227 and 190 | insulin sensitivity (ITT) [3, 5]: improved | ITT glucose, Average ([3]; 15 minutes): 143.067 | ITT glucose, individual mice ([3]; 15 minutes): 156 and 120 and 180 and 189 and 164 and 136 and 112 and 129 and 113 and 144 and 148 and 135 and 145 | ITT glucose, Average ([3]; 30 minutes, 100 mg/kg/day): 94.067 and 94.0667 | ITT glucose, individual mice ([3]; 30 minutes): 106 and 97 and 111 and 100 and 102 and 82 and 74 and 96 and 105 and 107 and 84 and 69 and 88 | ITT glucose, Average ([3]; 45 minutes, 100 mg/kg/day): 78.667 and 78.6667 | ITT glucose, individual mice ([3]; 45 minutes): 95 and 77 and 90 and 86 and 83 and 78 and 69 and 70 and 74 and 85 and 61 and 71 | ITT glucose, Average ([3]; 60 minutes): 69.8 | ITT glucose, individual mice ([3]; 60 minutes): 65 and 78 and 72 and 69 and 82 and 52 and 61 and 71 and 75 and 90 and 68 and 59 | ITT glucose, Average ([3]; 90 minutes, 100 mg/kg/day): 59.667 and 59.6667 | ITT glucose, individual mice ([3]; 90 minutes): 57 and 51 and 69 and 75 and 72 and 54 and 65 and 46 and 45 and 59 and 84 and 67 and 53 | ITT glucose, Average ([3]; 120 minutes, 100 mg/kg/day): 71.467 and 71.4667 | ITT glucose, individual mice ([3]; 120 minutes): 61 and 65 and 87 and 74 and 76 and 66 and 70 and 69 and 114 and 57 and 56 | ITT glucose, Average ([3]; 180 minutes, 100 mg/kg/day): 90.933 and 90.9333 | ITT glucose, individual mice ([3]; 180 minutes): 83 and 84 and 113 and 70 and 94 and 69 and 85 and 73 and 98 and 104 and 130 and 99 and 76 | diet-induced obesity (body weight) [4, 5]: significantly prevented diet-induced obesity | Body weight, Avg ([4]; time point 0): 30.59 | Body weight, Avg ([4]; time point 1): 31.2 | Body weight, Avg ([4]; time point 2): 31.673 | Body weight, Avg ([4]; time point 3): 32.167 | Body weight, Avg ([4]; time point 4): 32.92 | Body weight, Avg ([4]; time point 5): 32.837 | Body weight, Avg ([4]; time point 6): 33.673 | Body weight, Avg ([4]; time point 7): 33.323 | Body weight, Avg ([4]; time point 8): 33.923 | Body weight, Avg ([4]; time point 9): 34.59 | Body weight, Avg ([4]; time point 10): 35.623 | Body weight, Avg ([4]; time point 11): 36.193 | Body weight, Avg ([4]; time point 12): 37.113 | Body weight, Avg ([4]; time point 13): 36.957 | Body weight, Avg ([4]; time point 14): 38.33 | Body weight, Avg ([4]; time point 15): 38.607 | Body weight, Avg ([4]; time point 16): 39.303 | Body weight, Avg ([4]; time point 17): 40.533 | Body weight, Avg ([4]; time point 18): 40.933 | Body weight, Avg ([4]; time point 19): 42.11 | Body weight, Avg ([4]; time point 20): 41.483 | Body weight, Avg ([4]; time point 21): 42.933 | Body weight, Avg ([4]; time point 22): 43.33 | Body weight, Avg ([4]; time point 23): 44.06 | Body weight, Avg ([4]; time point 24): 44.36 | Body weight, Avg ([4]; time point 25): 45.28 | Body weight, Average ([4]; week 0): 30.59 | Body weight (individual mouse) ([4]; week 0): 30 and 33.8 and 29.8 and 28.35 | Body weight, Average ([4]; week 1): 31.2 | Body weight (individual mouse) ([4]; week 1): 30.45 and 34.45 and 30.15 and 29.55 | Body weight, Average ([4]; week 2): 31.6733 | Body weight (individual mouse) ([4]; week 2): 31.05 and 34.25 and 30.6 and 30.25 | Body weight, Average ([4]; week 3): 32.1667 | Body weight (individual mouse) ([4]; week 3): 31.8 and 34.4 and 30.9 and 31.9 | Body weight, Average ([4]; week 4): 32.92 | Body weight (individual mouse) ([4]; week 4): 32.8 and 36.5 and 31.8 and 33.15 | Body weight, Average ([4]; week 5): 32.8367 | Body weight (individual mouse) ([4]; week 5): 34.2 and 36 and 31.6 | Body weight, Average ([4]; week 6): 33.6733 | Body weight (individual mouse) ([4]; week 6): 34.5 and 37.15 and 31.9 | Body weight, Average ([4]; week 7): 33.3233 | Body weight (individual mouse) ([4]; week 7): 31.45 and 36.9 and 31.75 | Body weight, Average ([4]; week 8): 33.9233 | Body weight (individual mouse) ([4]; week 8): 34.8 and 36.35 and 31.55 | Body weight, Average ([4]; week 9): 34.59 | Body weight (individual mouse) ([4]; week 9): 35.75 and 38 and 32.05 and 35.25 | Body weight, Average ([4]; week 10): 35.6233 | Body weight (individual mouse) ([4]; week 10): 38.1 and 37.65 and 32.65 and 35.65 | Body weight, Average ([4]; week 11): 36.1933 | Body weight (individual mouse) ([4]; week 11): 39.55 and 38.45 and 32.7 and 35.65 | Body weight, Average ([4]; week 12): 37.1133 | Body weight (individual mouse) ([4]; week 12): 40.35 and 39.35 and 33.6 and 37.1 | Body weight, Average ([4]; week 13): 36.9567 | Body weight (individual mouse) ([4]; week 13): 40.15 and 39.25 and 33.15 and 37.05 | Body weight, Average ([4]; week 14): 38.33 | Body weight (individual mouse) ([4]; week 14): 42.7 and 39.9 and 33.45 and 38.65 | Body weight, Average ([4]; week 15): 38.6067 | Body weight (individual mouse) ([4]; week 15): 43.6 and 39.65 and 33.2 and 38.2 | Body weight, Average ([4]; week 16): 39.3033 | Body weight (individual mouse) ([4]; week 16): 45.5 and 40.05 and 32.8 and 39.05 | Body weight, Average ([4]; week 17): 40.5333 | Body weight (individual mouse) ([4]; week 17): 47.45 and 41.6 and 33.85 and 39.8 | Body weight, Average ([4]; week 18): 40.9333 | Body weight (individual mouse) ([4]; week 18): 47.8 and 41.55 and 34.1 and 40.8 | Body weight, Average ([4]; week 19): 42.11 | Body weight (individual mouse) ([4]; week 19): 50.9 and 42.65 and 34.9 and 42.2 | Body weight, Average ([4]; week 20): 41.4833 | Body weight (individual mouse) ([4]; week 20): 50.45 and 41.95 and 34.25 and 41.75 | Body weight, Average ([4]; week 21): 42.9333 | Body weight (individual mouse) ([4]; week 21): 52.5 and 42.9 and 35.35 and 43.3 | Body weight, Average ([4]; week 22): 43.33 | Body weight (individual mouse) ([4]; week 22): 53.9 and 43.35 and 35.75 and 44.95 | Body weight, Average ([4]; week 23): 44.06 | Body weight (individual mouse) ([4]; week 23): 55.05 and 46.1 and 36.75 and 45.25 | Body weight, Average ([4]; week 24): 44.36 | Body weight (individual mouse) ([4]; week 24): 50.35 and 46.35 and 37 and 46.4 | Body weight, Average ([4]; week 25): 45.28 | Body weight (individual mouse) ([4]; week 25): 54.2 and 47.6 and 36.05 and 48.2
